Measured values published in patent publication US20020137929A1, “1 - (3-heterocyclylphenyl) isothiourea, -isourea, -guanidine and -amidine herbicidal agents” (Intellectual Property Department, BASF Aktiengesellschaft, priority 1998, published 2002).

Assays:
ORYSAT (Rice, Tebonnet) = test: Preemergence herbicidal evaluation; type: in vivo, Oryza sativa, (L.) Tebonnet; conditions: rated 4-5 weeks after treatment, rating scale 0-9
In short: (§1)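 Herbicidal effect scored visually, 0-9, at 4 to 5 weeks against a control; compound applied preemergence by aqueous acetone spray to seeded soil at about 0.0156 to 0.500 kg/ha.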

CYPSE (Flatsedge) = test: Preemergence weed control under flooded paddy conditions; type: in vivo, Cyperus serotinus; conditions: rated 3-4 weeks after treatment
In short: (§2)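 Herbicidal effect is scored visually on a 0-9 scale against an untreated control, three to four weeks after compounds are pipetted into the flood water (1.5 to 3 cm deep) over seeds planted in silt loam at 0.5 cm depth. Rates: about 0.0313 to 0.500 kg/ha.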

CASOB (Sicklepod) = test: Postemergence herbicidal evaluation; type: in vivo, Cassia obtusifolia; conditions: postemergence
In short: (§3)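 ~2-wk seedlings; postemergence spray, 40 psi; vehicle 1:1 acetone:water + 0.5% Tween 20; rate ≈0.0156–0.500 kg/ha; greenhouse hold; scored 4–5 wk after treatment, 0–9 scale vs control; repeat tests averaged.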

GALAP (Galium) [1] = test: Postemergence herbicidal evaluation; type: in vivo, Galium aparine; conditions: postemergence
In short: as §3

[2] = test system: ECHORC (Watergrass (Calif.)); test: Preemergence weed control under flooded paddy conditions; type: in vivo, Echinochloa oryzoides; conditions: rated 3-4 weeks after treatment
In short: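 Ratings on a 0-9 visual scale cover stand, vigor, malformation, size, chlorosis and overall appearance relative to a control, taken three to four weeks post-treatment. Application was into flood water over freshly sown silt loam at roughly 0.0313 to 0.500 kg/ha.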

[3] = test system: TRZAWR (Wheat, Winter, cv Riband); test: Postemergence herbicidal evaluation; type: in vivo, Triticum aestivum; conditions: postemergence
In short: as §3

AMBEL (Ragweed, Common) = test: Postemergence herbicidal evaluation; type: in vivo, Ambrosia artemisifolia; conditions: postemergence
In short: as §3

SETVI (Foxtail, Green) = test: Preemergence herbicidal evaluation; type: in vivo, Setaria viridis; conditions: rated 4-5 weeks after treatment, rating scale 0-9
In short: as §1

[4] = test system: SAGPY (Arrowhead (Pygmaea)); test: Preemergence weed control under flooded paddy conditions; type: in vivo, Sagittaria pygmaea; conditions: rated 3-4 weeks after treatment
In short: as §2

MOOVA (Monochoria) = test: as above; type: in vivo, Monochoria vaginalis; conditions: rated 3-4 weeks after treatment
In short: as §2

GALAP (Galium) [5] = test: Preemergence herbicidal evaluation; type: in vivo, Galium aparine; conditions: rated 4-5 weeks after treatment, rating scale 0-9
In short: as §1

[6] = test system: GLXMAW (Soybean, Williams); test: Postemergence herbicidal evaluation; type: in vivo, Glycine max, (L.) Merr. cv Williams; conditions: postemergence
In short: as §3

Cc1cc(C)cc(CN2C(=O)CSC2=Nc2cc(-n3c(=O)cc(C(F)(F)F)n(C)c3=O)c(F)cc2Cl)c1 [Compound 146, 3-{4-Chloro-5-{[3-(3,5-dimethylbenzyl)-4-oxo-2-thiazolidinylidene]amino}-2-fluorophenyl}-1-methyl-6-(trifluoromethyl)-2,4(1H,3H)-pyrimidinedione]
1.0: Preemergence herbicidal rating ORYSAT (ORYSAT (Rice, Tebonnet); rate 0.2500 kg/ha) | Herbicidal rating CASOB (CASOB (Sicklepod); rate 0.0156 kg/ha) | Preemergence herbicidal rating GALAP (GALAP (Galium) [5]; rate 0.0156 kg/ha)
6.0: herbicidal effect rating, MOOVA (MOOVA (Monochoria); 0.0625 kg/ha) | herbicidal effect rating, MOOVA (MOOVA (Monochoria); 0.1250 kg/ha) | Herbicidal rating GLXMAW ([6]; rate 0.0313 kg/ha) | Herbicidal rating GLXMAW ([6]; rate 0.0625 kg/ha)
0.0: Preemergence herbicidal rating ORYSAT (ORYSAT (Rice, Tebonnet); rate 0.0156 kg/ha) | Preemergence herbicidal rating ORYSAT (ORYSAT (Rice, Tebonnet); rate 0.0313 kg/ha) | Preemergence herbicidal rating ORYSAT (ORYSAT (Rice, Tebonnet); rate 0.0625 kg/ha) | Preemergence herbicidal rating ORYSAT (ORYSAT (Rice, Tebonnet); rate 0.1250 kg/ha) | herbicidal effect rating, CYPSE (CYPSE (Flatsedge); 0.0313 kg/ha) | herbicidal effect rating, CYPSE (CYPSE (Flatsedge); 0.0625 kg/ha) | herbicidal effect rating, CYPSE (CYPSE (Flatsedge); 0.1250 kg/ha) | herbicidal effect rating, CYPSE (CYPSE (Flatsedge); 0.2500 kg/ha) | Preemergence herbicidal rating SETVI (SETVI (Foxtail, Green); rate 0.0156 kg/ha) | Preemergence herbicidal rating SETVI (SETVI (Foxtail, Green); rate 0.0313 kg/ha) | Preemergence herbicidal rating SETVI (SETVI (Foxtail, Green); rate 0.0625 kg/ha) | herbicidal effect rating, SAGPY ([4]; 0.0313 kg/ha) | herbicidal effect rating, SAGPY ([4]; 0.0625 kg/ha) | Preemergence herbicidal rating GALAP (GALAP (Galium) [5]; rate 0.0313 kg/ha) | Preemergence herbicidal rating GALAP (GALAP (Galium) [5]; rate 0.0625 kg/ha)
4.0: Herbicidal rating CASOB (CASOB (Sicklepod); rate 0.0625 kg/ha) | Herbicidal rating GALAP (GALAP (Galium) [1]; rate 0.0625 kg/ha) | herbicidal effect rating, SAGPY ([4]; 0.2500 kg/ha) | herbicidal effect rating, MOOVA (MOOVA (Monochoria); 0.0313 kg/ha)
3.5: Herbicidal rating TRZAWR ([3]; rate 0.0313 kg/ha)
5.0: Preemergence herbicidal rating SETVI (SETVI (Foxtail, Green); rate 0.2500 kg/ha) | Herbicidal rating GLXMAW ([6]; rate 0.0156 kg/ha)
3.0: Preemergence herbicidal rating SETVI (SETVI (Foxtail, Green); rate 0.1250 kg/ha) | herbicidal effect rating, SAGPY ([4]; 0.1250 kg/ha)
2.0: Herbicidal rating CASOB (CASOB (Sicklepod); rate 0.0313 kg/ha) | Herbicidal rating GALAP (GALAP (Galium) [1]; rate 0.0156 kg/ha) | Herbicidal rating GALAP (GALAP (Galium) [1]; rate 0.0313 kg/ha) | Herbicidal rating TRZAWR ([3]; rate 0.0156 kg/ha) | Preemergence herbicidal rating GALAP (GALAP (Galium) [5]; rate 0.1250 kg/ha) | Preemergence herbicidal rating GALAP (GALAP (Galium) [5]; rate 0.2500 kg/ha)
9.0: herbicidal effect rating, ECHORC ([2]; 0.0313 kg/ha) | herbicidal effect rating, ECHORC ([2]; 0.0625 kg/ha) | herbicidal effect rating, ECHORC ([2]; 0.1250 kg/ha) | herbicidal effect rating, ECHORC ([2]; 0.2500 kg/ha) | Herbicidal rating AMBEL (AMBEL (Ragweed, Common); rate 0.0156 kg/ha) | Herbicidal rating AMBEL (AMBEL (Ragweed, Common); rate 0.0313 kg/ha) | Herbicidal rating AMBEL (AMBEL (Ragweed, Common); rate 0.0625 kg/ha) | herbicidal effect rating, MOOVA (MOOVA (Monochoria); 0.2500 kg/ha)
4.5: Herbicidal rating TRZAWR ([3]; rate 0.0625 kg/ha)

Cc1ccc(CN2C(=O)CSC2=Nc2cc(-n3c(=O)cc(C(F)(F)F)n(C)c3=O)c(F)cc2Cl)cc1Cl [Compound 149, 3-{4-Chloro-5-{[3-(3-chloro-4-methylbenzyl)-4-oxo-2-thiazolidinylidene]amino}-2-fluorophenyl}-1-methyl-6-(trifluoromethyl)-2,4(1H,3H)-pyrimidinedione]
4.5: Herbicidal rating GLXMAW ([6]; rate 0.0313 kg/ha) | Herbicidal rating GLXMAW ([6]; rate 0.0625 kg/ha)
3.5: Herbicidal rating TRZAWR ([3]; rate 0.0313 kg/ha) | Herbicidal rating TRZAWR ([3]; rate 0.0625 kg/ha)
0.0: herbicidal effect rating, CYPSE (CYPSE (Flatsedge); 0.0313 kg/ha) | herbicidal effect rating, CYPSE (CYPSE (Flatsedge); 0.0625 kg/ha) | herbicidal effect rating, CYPSE (CYPSE (Flatsedge); 0.1250 kg/ha) | herbicidal effect rating, CYPSE (CYPSE (Flatsedge); 0.2500 kg/ha) | Herbicidal rating CASOB (CASOB (Sicklepod); rate 0.0156 kg/ha) | Herbicidal rating CASOB (CASOB (Sicklepod); rate 0.0313 kg/ha) | Herbicidal rating CASOB (CASOB (Sicklepod); rate 0.0625 kg/ha) | Herbicidal rating GALAP (GALAP (Galium) [1]; rate 0.0156 kg/ha) | Herbicidal rating GALAP (GALAP (Galium) [1]; rate 0.0313 kg/ha) | Preemergence herbicidal rating SETVI (SETVI (Foxtail, Green); rate 0.1250 kg/ha) | Preemergence herbicidal rating SETVI (SETVI (Foxtail, Green); rate 0.2500 kg/ha) | herbicidal effect rating, SAGPY ([4]; 0.0313 kg/ha) | Preemergence herbicidal rating GALAP (GALAP (Galium) [5]; rate 0.1250 kg/ha) | Preemergence herbicidal rating GALAP (GALAP (Galium) [5]; rate 0.2500 kg/ha)
2.0: Preemergence herbicidal rating ORYSAT (ORYSAT (Rice, Tebonnet); rate 0.1250 kg/ha) | Preemergence herbicidal rating ORYSAT (ORYSAT (Rice, Tebonnet); rate 0.2500 kg/ha) | Herbicidal rating GALAP (GALAP (Galium) [1]; rate 0.0625 kg/ha) | herbicidal effect rating, ECHORC ([2]; 0.0313 kg/ha) | herbicidal effect rating, SAGPY ([4]; 0.0625 kg/ha)
4.0: Herbicidal rating AMBEL (AMBEL (Ragweed, Common); rate 0.0156 kg/ha) | Herbicidal rating GLXMAW ([6]; rate 0.0156 kg/ha)
5.0: herbicidal effect rating, MOOVA (MOOVA (Monochoria); 0.0313 kg/ha)
6.0: herbicidal effect rating, ECHORC ([2]; 0.1250 kg/ha)
9.0: Herbicidal rating AMBEL (AMBEL (Ragweed, Common); rate 0.0313 kg/ha) | Herbicidal rating AMBEL (AMBEL (Ragweed, Common); rate 0.0625 kg/ha)
7.0: herbicidal effect rating, ECHORC ([2]; 0.2500 kg/ha) | herbicidal effect rating, MOOVA (MOOVA (Monochoria); 0.0625 kg/ha) | herbicidal effect rating, MOOVA (MOOVA (Monochoria); 0.1250 kg/ha) | herbicidal effect rating, MOOVA (MOOVA (Monochoria); 0.2500 kg/ha)
3.0: herbicidal effect rating, ECHORC ([2]; 0.0625 kg/ha) | Herbicidal rating TRZAWR ([3]; rate 0.0156 kg/ha) | herbicidal effect rating, SAGPY ([4]; 0.1250 kg/ha) | herbicidal effect rating, SAGPY ([4]; 0.2500 kg/ha)
